From US8962600B2, “Neuroprotective compounds and their use” (The Medical College of Wisconsin, Inc., priority 2009, dated 2015) come the findings set out here.

The subject of assay [1] is dopaminergic neurons in substantia nigra. In words: FLUORO-JADE B and tyrosine hydroxylase double labeling in substantia nigra. The class given is in vivo, C57BL/6 mice. The following applies: MPTP- and diapocynin-treated mice; 7 days after final MPTP injection. Here is the method: Six- to 8-week-old C57BL/6 mice weighing 24 to 28 g were housed in standard conditions of constant temperature (22±1° C.), humidity (relative, 30%), and a 12-h light/dark cycle. Mice were allowed free access to food and water. Use of the animals and protocol procedures were approved and supervised by the Committee on Animal Care at Iowa State University (Ames, Iowa). For neurodegeneration studies, mice either received diapocynin (300 mg/kg dose) by oral gavage for 1 day (pre-treatment before MPTP administration), 5 days (co-treatment with MPTP), or 7 days (post-treatment after MPTP).
FLUORO-JADE B® and tyrosine hydroxylase (TH) double-labeling was performed in substantia nigra sections, as described previously (58). In brief, 7 days after the final MPTP injection, mice were sacrificed and perfused with 4% PFA and post-fixed with PFA and 30% sucrose, respectively. Fixed brains were cut into 30 μm sections and kept in 30% sucrose-ethylene glycol solutions at −20° C. On the day of staining, sections were rinsed with PBS and incubated with anti-TH antibody (Millipore, mouse monoclonal, dilution 1;1600) followed by Alexa Fluor 568 donkey anti-mouse secondary antibody (Invitrogen). […] Sections were viewed under a Nikon inverted fluorescence microscope (model TE-2000U). […]

The subject of the next assay is IL-1β. In words: LPS-induced IL-1β release in primary microglia, LUMINEX immunoassay. The class given is cell-based, mouse. Conditions: diapocynin 10 μM, LPS 24 hr. Here is the method:
Primary microglia were obtained from 1-2 day old C57/b16 mouse pups. Upon collection, whole brains were kept in ice-cold DMEM-F12 medium containing 10% FBS, 1× sodium pyruvate, 1× NEAAs, 100 units pen/strep, and Q. After collection, the brains were placed in 0.25% trypsin-EDTA and incubated at 37° C., with gentle shaking every 5-10 min. After 30 min, the trypsin was removed, and the brains are washed in warmed medium twice. After washing, medium was added to the brains, and the brains were homogenized using gentle pipetting, starting with a 25 ml pipette and moving to smaller pipette tips as the brains were broken up. When the brains were sufficiently homogenized to a single-cell suspension, they were filtered with a 70 μm nylon filter, which allowed microglia and astrocytes to be collected. The resultant cell suspension was plated in T-75 flasks and allowed to grow for 12-14 days at 37° C., 5% CO2. […]
Cytokine levels of BV2 and microglial cells treated with diapocynin were determined by LUMINEX® multiplex immunoassay. […]
Cytokine standards and controls were adjusted to 40 μl volume and the LUMINEX® Samples were run on a LUMINEX® 200 Total System and analyzed with Multiplex Analysis—LUMINEX® Software (Invitrogen, Carlsbad, Calif.).

Molecules are shown by their SMILES.

Consider `COc1cc(C(C)=O)cc(-c2cc(C(C)=O)cc(OC)c2O)c1O` [diapocynin], for which, in assay [1], the “FLUORO-JADE B-positive cells in substantia nigra” value is listed as “fewer” and the “TH-positive cells in substantia nigra” value is given as “increases”. In the assay on IL-1β, the “blocking LPS-induced release of IL-1β” value is “very effective”.
